Assay results published in patent US20110172296A1, “MODULATION OF TRANSFORMING GROWTH FACTOR-BETA 1 EXPRESSION” (priority 2010, published 2011).
Several values for one entry are separate records, joined by “and”; a condition that tells them apart may be missing. Equal values may be shown once. Entries after “also recorded” stand apart in the source; their conditions may differ. In the oligonucleotide strings, read from the 5' end, every base follows the letter of its sugar. An asterisk marks phosphorothioate; unmarked linkages are phosphodiester. Other units and linkages are bracketed, terminal groups are in braces. A string of capitals states the bases alone. e = 2'-O-(2-methoxyethyl) (MOE); [5mC] = 5-methylcytosine; d = 2'-deoxy (DNA)

Assays:
human TGF-beta1 mRNA [1] = test: Antisense inhibition of human TGF-beta1 mRNA in HuVEC cells, single 10 nM dose, Lipofectamine 2000 (Example 2); assay type: cell-based
Procedure, shortened: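 HuVEC cells (5,000/well) transfected with 10 nM 2-13-5 MOE gapmer (phosphorothioate, 5-methylcytosine) via Lipofectamine 2000 for 4 h, then recovered ~24 h. mRNA measured by qRT-PCR, normalized to RIBOGREEN total RNA; percent inhibition versus untreated cells.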

human TGF-beta1 mRNA [2] = test: Dose-dependent antisense inhibition of human TGF-beta1 in HuVEC cells, Lipofectamine 2000, 0.9375-30 nM (Example 3); assay type: cell-based; settings: Lipofectamine 2000
Experimental: Cells were plated at a density of 5,000 cells per well and transfected using Lipofectamine™ 2000 reagent with 0.9375 nM, 1.875 nM, 3.75 nM, 7.5 nM, 15 nM, and 30 nM concentrations of antisense oligonucleotide for 4 hours, as specified in Table 3. After a recovery period of approximately 16 hours, RNA was isolated from the cells and TGF-beta1 mRNA levels were measured by quantitative real-time PCR. Human TGF-beta1 primer probe set RTS 2980 (forward sequence CTCTCCGACCTGCCACAGA, SEQ ID NO: 160; reverse sequence […], SEQ ID NO: 53; probe sequence CCCTATTCAAGACCACCCACCTTCTGGTX, SEQ ID NO: 161) was used to measure mRNA levels. TGF-beta1 mRNA levels were adjusted according to total RNA content, as measured by RIBOGREEN®. Results are presented as percent inhibition of TGF-beta1, relative to untreated control cells.

human TGF-beta1 mRNA [3] = test: Dose-dependent antisense inhibition of human TGF-beta1 in HuVEC cells, Lipofectamine 2000, 0.3292-80 nM, comparison with oligos of U.S. Pat. No. 6,436,909 (Example 4); assay type: cell-based
Experimental: The dose-dependent antisense inhibition potential of these gapmers was compared with that of Oligo IDs 104992 and 1138498 from U.S. Pat. No. 6,436,909. Cells were plated at a density of 5,000 cells per well and transfected using Lipofectamine™ 2000 reagent with 0.3292 nM, 0.9877 nM, 2.963 nM, 8.8889 nM, 26.6667 nM, and 80 nM concentrations of antisense oligonucleotide for 4 hours, as specified in Table 4. After a recovery period of approximately 16 hours, RNA was isolated from the cells and TGF-beta1 mRNA levels were measured by quantitative real-time PCR. Human TGF-beta1 primer probe set RTS 2980 was used to measure mRNA levels. TGF-beta1 mRNA levels were adjusted according to total RNA content, as measured by RIBOGREEN®. Results are presented as percent inhibition of TGF-beta1, relative to untreated control cells. […] All the antisense oligonucleotides in Table 4 target human TGF-beta1 mRNA (SEQ ID NO: 1).

human TGF-beta1 mRNA [4] = test: Dose-dependent confirmation of antisense inhibition of human TGF-beta1 in HuVEC cells after large-scale synthesis, Lipofectamine 2000, 0.007-15 nM (Example 5); assay type: cell-based; settings: for percent inhibition of TGF-beta1: Lipofectamine 2000
Experimental: Cells were plated at a density of 5,000 cells per well and transfected using Lipofectamine™ 2000 reagent with 0.007 nM, 0.021 nM, 0.062 nM, 0.185 nM, 0.556 nM, 1.667 nM, 5 nM, and 15 nM concentrations of antisense oligonucleotide for 4 hours, as specified in Table 5. After a recovery period of approximately 16 hours, RNA was isolated from the cells and TGF-beta1 mRNA levels were measured by quantitative real-time PCR. Human TGF-beta1 primer probe set RTS 2980 was used to measure mRNA levels. TGF-beta1 mRNA levels were adjusted according to total RNA content, as measured by RIBOGREEN®. Results are presented as percent inhibition of TGF-beta1, relative to untreated control cells.

human TGF-beta1 mRNA [5] = test: Dose-dependent confirmation of antisense inhibition of human TGF-beta1 in HuVEC cells, electroporation (Example 6); assay type: cell-based
Experimental: The gapmers from Example 5 (see Table 5) were also tested at various doses in HuVEC cells using electroporation as the transfection reagent. Cells were plated at a density of 20,000 cells per well and transfected using electroporation with 0.15625 nM, 0.3125 nM, 0.625 nM, 1.25 nM, 2.5 nM, 5 nM, 10 nM, and 20 nM concentrations of antisense oligonucleotide for 4 hours, as specified in Table 6. After a recovery period of approximately 16 hours, RNA was isolated from the cells and TGF-beta1 mRNA levels were measured by quantitative real-time PCR. TGF-beta1 mRNA levels were adjusted according to total RNA content, as measured by RIBOGREEN®. Results are presented as percent inhibition of TGF-beta1, relative to untreated control cells.

BALB/c mice = test: Tolerability in BALB/c mice: plasma transaminases ALT and AST (Example 7); settings: for aspartate transaminase levels: plasma
Experimental: These gapmer oligonucleotides were designed to target human TGF-beta1 and have varying degrees of mismatch with murine TGF-beta1 sequence, as shown in Table 1. Oligo ID Nos. 413982 and 414040 have greater than 3 mismatches to the murine TGF-beta1 sequence. Oligo ID No. 414035 has 2 mismatches to murine TGF-beta1. Oligo ID No. 414036 has no mismatches to murine TGF-beta1.
BALB/c mice were injected with 25 mg/kg or 50 mg/kg of Oligo ID Nos. 413982, 414035, 414036, or 414040 twice a week for 4 weeks. A control group of mice was injected with phosphate buffered saline (PBS) twice a week for 4 weeks. Plasma transaminase levels were evaluated bi-weekly.
To evaluate the impact of TGF-beta1 antisense oligonucleotides on the hepatic function of mice described above, plasma concentrations of transaminases were measured using an automated clinical chemistry analyzer (Hitachi Olympus AU400e, Melville, N.Y.).

[6] = test system: bleomycin-induced skin fibrosis in C57BL/6 mice; test: Bleomycin-induced murine model of skin fibrosis: skin thickness and breaking strength (Example 10); assay type: in vivo, mouse; settings: for bleomycin-induced skin fibrosis and thickening: C57BL/6 mice, 5 mg intradermally twice a week, Day 18
Experimental: The ability of a TGF-beta1 ASO to reduce the induction of skin fibrosis in a bleomycin-induced model of dermal fibrosis was evaluated.
Two groups of 8 C57BL/6 mice each were treated with bleomycin every other day for 19 days. Bleomycin, at a concentration of 10 mg/mL in PBS and at a volume of 0.1 mL, was injected subcutaneously into the shaved backs of the mice. The injection site was divided into 4 quadrants. The 100 μL volume of bleomycin was divided into four 25 μL aliquots injected at 90 degree intervals, to the upper left, upper right, lower left, and lower right “quadrants”.
Each of the two groups was treated intradermally with PBS (vehicle) or a 5 mg dose of a TGF-beta1 antisense oligonucleotide (Oligo ID 433849) twice a week, starting from day 1 of bleomycin administration. Animals were sacrificed on Day 18 of the study. Skin thickness was measured by skin calipers on 6-mm punch biopsy specimens obtained from the upper back of the mice. Breaking strength of the skin was measured on the 6-mm punch biopsy specimens using a tensiometer (Series EG2 digital force gauge; Mark-10, Copiague, N.Y.), and the point of maximal stress before tearing of the biopsy specimen was recorded. All measurements were undertaken in a blinded manner.

“414040 (antisense e[5mC]*eT*d[5mC]*dT*d[5mC]*dT*d[5mC]*d[5mC]*dA*dT*d[5mC]*dT*dT*dT*dA*eA*eT*eG*eG*eG) [compound 414040]” was tested, and the “% inhibition” value (human TGF-beta1 mRNA [1]; 10 nM oligonucleotide, HuVEC, relative to untreated control cells, gapmers targeted to SEQ ID NO: 1) was 90%, the “inhibition of a TGF-beta1 mRNA” value (human TGF-beta1 mRNA [1]; threshold lists of Oligo IDs, 10 nM) was 60% and 65% and 70% and 75% and 80% and 85% and 90% and the “percent inhibition of TGF-beta1” value (human TGF-beta1 mRNA [2]; 0.9375 nM) was 72%. The “percent inhibition of TGF-beta1” value (human TGF-beta1 mRNA [2]; 1.875 nM) was 83%, the “percent inhibition of TGF-beta1” value (human TGF-beta1 mRNA [2]; 3.75 nM) was 90% and the “percent inhibition of TGF-beta1” value (human TGF-beta1 mRNA [2]; 7.5 nM) was 94%. For the same substance, the “percent inhibition of TGF-beta1” value (human TGF-beta1 mRNA [2]; 15 nM) was 95%, the “percent inhibition of TGF-beta1” value (human TGF-beta1 mRNA [2]; 30 nM) was 95% and the “percent inhibition of TGF-beta1” value (human TGF-beta1 mRNA [3]; 0.3292 nM) was 85%. The “percent inhibition of TGF-beta1” value (human TGF-beta1 mRNA [3]; 0.9877 nM) was 90%, the “percent inhibition of TGF-beta1” value (human TGF-beta1 mRNA [3]; 2.963 nM) was 94% and the “percent inhibition of TGF-beta1” value (human TGF-beta1 mRNA [3]; 8.8889 nM) was 94%. The “percent inhibition of TGF-beta1” value (human TGF-beta1 mRNA [3]; 26.6667 nM) was 94%, the “percent inhibition of TGF-beta1” value (human TGF-beta1 mRNA [3]; 80.0 nM) was 93% and the “percent inhibition of TGF-beta1” value (human TGF-beta1 mRNA [4]; 0.007 nM) was 19%. The “percent inhibition of TGF-beta1” value (human TGF-beta1 mRNA [4]; 0.021 nM) was 45%, the “percent inhibition of TGF-beta1” value (human TGF-beta1 mRNA [4]; 0.062 nM) was 58% and the “percent inhibition of TGF-beta1” value (human TGF-beta1 mRNA [4]; 0.185 nM) was 76%. The “percent inhibition of TGF-beta1” value (human TGF-beta1 mRNA [4]; 0.556 nM) was 83%, the “percent inhibition of TGF-beta1” value (human TGF-beta1 mRNA [4]; 1.667 nM) was 89% and the “percent inhibition of TGF-beta1” value (human TGF-beta1 mRNA [4]; 5 nM) was 92%. The “percent inhibition of TGF-beta1” value (human TGF-beta1 mRNA [4]; 15 nM) was 93%, the IC50 (human TGF-beta1 mRNA [4]; Lipofectamine 2000, Example 5) was 0.04 nM and the “percent inhibition of TGF-beta1 mRNA relative to untreated control cells” value (human TGF-beta1 mRNA [5]; 0.15625 nM oligonucleotide) was 57%. The “percent inhibition of TGF-beta1 mRNA relative to untreated control cells” value (human TGF-beta1 mRNA [5]; 0.3125 nM oligonucleotide) was 68%, the “percent inhibition of TGF-beta1 mRNA relative to untreated control cells” value (human TGF-beta1 mRNA [5]; 0.625 nM oligonucleotide) was 81% and the “percent inhibition of TGF-beta1 mRNA relative to untreated control cells” value (human TGF-beta1 mRNA [5]; 1.25 nM oligonucleotide) was 91%. For the same substance, the “percent inhibition of TGF-beta1 mRNA relative to untreated control cells” value (human TGF-beta1 mRNA [5]; 2.5 nM oligonucleotide) was 93%, the “percent inhibition of TGF-beta1 mRNA relative to untreated control cells” value (human TGF-beta1 mRNA [5]; 5.00 nM oligonucleotide) was 95% and the “percent inhibition of TGF-beta1 mRNA relative to untreated control cells” value (human TGF-beta1 mRNA [5]; 10.00 nM oligonucleotide) was 94%. For the same substance, the “percent inhibition of TGF-beta1 mRNA relative to untreated control cells” value (human TGF-beta1 mRNA [5]; 20 nM oligonucleotide) was 94%, the alanine transaminase levels (BALB/c mice; 25 mg/kg twice a week, Week 2) was 178 IU/L and the alanine transaminase levels (BALB/c mice; 25 mg/kg twice a week, Week 4) was 2248 IU/L. It also gave an aspartate transaminase levels (BALB/c mice; 25 mg/kg twice a week, Week 2) of 128 IU/L, an aspartate transaminase levels (BALB/c mice; 25 mg/kg twice a week, Week 4) of 1405 IU/L and an alanine transaminase levels (BALB/c mice; 50 mg/kg twice a week, Week 2) of 837 IU/L. The alanine transaminase levels (BALB/c mice; 50 mg/kg twice a week, Week 4) was 4997 IU/L, the aspartate transaminase levels (BALB/c mice; 50 mg/kg twice a week, Week 2) was 529 IU/L and the aspartate transaminase levels (BALB/c mice; 50 mg/kg twice a week, Week 4) was 2237 IU/L. The “increase in ALT levels” value (BALB/c mice; compared to placebo (PBS) controls) was > 160 fold and 166 fold.
With “Oligo ID 433849: rat specific TGF-beta1 antisense oligonucleotide; SEQ ID NO. 166 (antisense GTCCTTAAATACAGCCCCGG; listed as DNA, chemistry not given here) [rat specific TGF-beta1 antisense oligonucleotide; 166]” the “bleomycin-induced skin fibrosis and thickening” value [6] was “significantly reduced” and the “bleomycin-induced skin fibrosis and thickening” value ([6]; listed as TGF-beta1 ASO) was “significantly reduced; also recorded: reduced the severity”.
bleomycin [reference compound] was tested, and the skin thickness ([6]; bleomycin-treated mice, from 30 mm) was 40-45 mm and the “breaking strength of skin” value ([6]; bleomycin-treated mice, untreated skin typically 0.2 kg tension) was “approximately 0.47 kg”.
